The values that follow come from patent publication US11530229B2, “Cyano cyclobutyl compounds for CBL-B inhibition and uses thereof” (Nurix Therapeutics, Inc., priority 2019, dated 2022).

One assay concerns the target Cbl-b (Homo sapiens (Human), UniProt Q13191). Nature of the assay: Cbl-b displacement assay (Cbl-b inhibition assay), Biological Example 1. It is filed as binding. As for the experimental part:
Candidate compounds were evaluated for their ability to bind and inhibit Cbl-b, an E3 ubiquitin-protein ligase, as evidenced by their ability to displace a fluorophore-labeled probe (Example 59) bound to Cbl-b.
The ability of candidate compounds to displace a known inhibitor and thereby inhibit Cbl-b activity was measured by monitoring the interaction of Cbl-b with a fluorophore-labeled probe in the presence of the candidate compound. A truncated variant of Cbl-b (UniProt number Q13191; SEQ ID NO:1) containing an Avitag at its N-terminus was co-expressed with BirA biotin ligase and purified using a standard protocol (see Dou et al., Nature Structural and Molecular Biology, 8: 982-987, 2013; Avidity LLC).
Cbl-b Amino Acid Residues 36-427:
Fluorescently-labeled inhibitor probe was synthesized and tagged with BODIPY FL (Example 59). Cbl-b displacement assays were performed in a 384-well plate at room temperature in a 10 μL reaction volume by pre-incubating 0.5 nM Cbl-b or 0.125 nM Cbl-b (final concentration, indicated as “High” and “Low”, respectively) in an assay buffer containing 20 mM HEPES pH 7.5, 150 mM NaCl, 0.01% Triton X-100, 0.01% BSA and 0.5 mM TCEP in the presence of a candidate compound in 1% DMSO (final concentration) for 1 hour. After incubation in the presence of the candidate compound, the plate was incubated for an additional 1 hour in the presence of an approximate EC40 binding saturation consisting of 150 nM fluorescently-labeled inhibitor probe and 2 nM Streptavidin-Terbium (Cisbio) (final concentrations). Following the 1 hour incubation, the plates were read for TR-FRET signal at […] using an Envision plate reader (Perkin Elmer).

In assay [1] the test system is primary human total T-cells. Nature of the assay: T-cell activation, IL-2 secretion, Biological Example 2. It is filed as cell-based. Conditions: 48 hours, fold change over baseline; for fold induction at 0.3 µM: 0.3 μM inhibitor; for fold induction at 1 µM: 1 μM inhibitor; for fold induction at 3 µM: 3 μM inhibitor.
For assay [2], the system named is primary human total T-cells. Nature of the assay: T-cell activation, CD25 surface staining, Biological Example 2. It is filed as cell-based. The settings on record: 48 hours, fold change over baseline; for fold induction at 0.3 µM: 0.3 μM inhibitor; for fold induction at 1 µM: 1 μM inhibitor; for fold induction at 3 µM: 3 μM inhibitor.
Where [3] appears, read: 0.125 nM Cbl-b final concentration (Low), read-out: Cbl-b activity IC50 (Low).
[4] abbreviates: read-out: IC50 values in the Cbl-b inhibition assay of Biological Example 1.
Setting [5] is: anti-CD3 and anti-CD28 co-stimulation.
Where [6] appears, read: anti-CD3 and anti-CD28 co-stimulation, read-out: IL-2 secretion CD3/CD28 1 μM.
Where [7] appears, read: anti-CD3 stimulation alone, read-out: IL-2 secretion CD3 1 μM.
The mark [8] stands for this setting: anti-CD3 and anti-CD28 co-stimulation, read-out: CD25 staining CD3/CD28 1 μM.
The mark [9] stands for this setting: anti-CD3 stimulation alone, read-out: CD25 staining CD3 1 μM.

Like-named read-outs stand apart in the source and are kept apart here.

Sequence of Cbl-b (Q13191 36-427): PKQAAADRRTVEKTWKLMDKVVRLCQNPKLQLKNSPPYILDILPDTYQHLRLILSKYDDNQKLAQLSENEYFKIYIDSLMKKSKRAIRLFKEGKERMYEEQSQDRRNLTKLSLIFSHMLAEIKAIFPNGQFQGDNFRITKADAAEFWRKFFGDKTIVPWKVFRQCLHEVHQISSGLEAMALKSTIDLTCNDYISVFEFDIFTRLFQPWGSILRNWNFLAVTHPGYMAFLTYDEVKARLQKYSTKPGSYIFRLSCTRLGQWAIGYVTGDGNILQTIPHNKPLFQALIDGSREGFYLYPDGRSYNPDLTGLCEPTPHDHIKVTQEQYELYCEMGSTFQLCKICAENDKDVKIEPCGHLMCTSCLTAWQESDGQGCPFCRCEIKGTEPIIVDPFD

Consider `Cn1cnnc1C[C@]1(c2cccc(N3Cc4c(cc(CNC5COC(C)(C)C5)cc4C(F)(F)F)C3=O)c2)C[C@H](C#N)C1` (stereo partly drawn) [Compound 24, (1r,3r)-3-(3-(6-(((5,5-dimethyltetrahydrofuran-3-yl)amino)methyl)-1-oxo-4-(trifluoromethyl)isoindolin-2-yl)phenyl)-3-((4-methyl-4H-1,2,4-triazol-3-yl)methyl)cyclobutane-1-carbonitrile], for which the IC50 on Cbl-b (setting [3]) and at Cbl-b (setting [4]) was 2 to 5 nM throughout. The fold induction at 0.3 µM in assay [1] (setting [5]) was no more than 15; in assay [2] (setting [5]) it was 1.24 to 1.39. In addition, the fold induction at 1 µM in assay [1] (setting [6]) was 15 to 20; in assay [1] (setting [7]), 0.4 to 0.85; in assay [2] (setting [8]), 1.24 to 1.39; in assay [2] (setting [9]), greater than 1.15. The values for the fold induction at 3 µM in assay [1] (anti-CD3 stimulation alone) and in assay [2] (anti-CD3 stimulation alone) were 0.4 to 0.85 and 1 to 1.15, respectively.
Consider `CC1CCCCN(Cc2cc3c(c(C(F)(F)F)c2)CN(c2cccc([C@]4(Cc5nncn5C)C[C@@H](C#N)C4)c2)C3=O)C1` (stereo partly drawn) [Compound 25, (1r,3r)-3-((4-methyl-4H-1,2,4-triazol-3-yl)methyl)-3-(3-(6-((3-methylazepan-1-yl)methyl)-1-oxo-4-(trifluoromethyl)isoindolin-2-yl)phenyl)cyclobutane-1-carbonitrile], for which the IC50 on Cbl-b (setting [3]) and at Cbl-b (setting [4]) was less than 1 nM in each case. For the same compound, the figures for the fold induction at 0.3 µM in assay [1] (setting [5]) and in assay [2] (setting [5]) were greater than 20 and 1.24 to 1.39, respectively. For the same compound, the fold induction at 1 µM in assay [1] (setting [6]) is greater than 20; in assay [1] (setting [7]), greater than 0.85; in assay [2] (setting [8]) it was 1.24 to 1.39; in assay [2] (setting [9]), 1 to 1.15. Also, the fold induction at 3 µM is greater than 0.85 in assay [1] (anti-CD3 stimulation alone) and no more than 1 in assay [2] (anti-CD3 stimulation alone).
For `Cn1cnnc1C[C@]1(c2cccc(N3Cc4c(cc(CN5CCCCC(C)(F)C5)cc4C(F)(F)F)C3=O)c2)C[C@H](C#N)C1` (stereo partly drawn) [Compound 26, (1r,3r)-3-(3-(6-((3-fluoro-3-methylazepan-1-yl)methyl)-1-oxo-4-(trifluoromethyl)isoindolin-2-yl)phenyl)-3-((4-methyl-4H-1,2,4-triazol-3-yl)methyl)cyclobutane-1-carbonitrile], the IC50 at Cbl-b (setting [3]) was 2 to 5 nM. The figures for the fold induction at 0.3 µM in assay [1] (setting [5]) and in assay [2] (setting [5]) were no more than 15 and no more than 1.24, respectively. For the same compound, the fold induction at 1 µM in assay [1] (setting [6]) was no more than 15; in assay [1] (setting [7]), less than 0.4; in assay [2] (setting [8]), no more than 1.24; in assay [2] (setting [9]), no more than 1. In addition, the fold induction at 3 µM in assay [1] (anti-CD3 stimulation alone) is less than 0.4; in assay [2] (anti-CD3 stimulation alone), no more than 1.
As for `Cn1cnnc1C[C@]1(c2cccc(N3Cc4c(cc(CN5CCC6C(C5)C6(F)F)cc4C(F)(F)F)C3=O)c2)C[C@H](C#N)C1` (stereo partly drawn) [Compound 27, (1r,3r)-3-(3-(6-((7,7-difluoro-3-azabicyclo[4.1.0]heptan-3-yl)methyl)-1-oxo-4-(trifluoromethyl)isoindolin-2-yl)phenyl)-3-((4-methyl-4H-1,2,4-triazol-3-yl)methyl)cyclobutane-1-carbonitrile], the IC50 at Cbl-b (setting [3]) fell in the range of 2 to 5 nM. Also, the values for the fold induction at 0.3 µM in assay [1] (setting [5]) and in assay [2] (setting [5]) were no more than 15 and no more than 1.24, respectively. Further, the fold induction at 1 µM in assay [1] (setting [6]) was no more than 15; in assay [1] (setting [7]), less than 0.4; in assay [2] (setting [8]), no more than 1.24; in assay [2] (setting [9]), no more than 1. The fold induction at 3 µM in assay [1] (anti-CD3 stimulation alone) was 0.4 to 0.85; in assay [2] (anti-CD3 stimulation alone), no more than 1.
In the case of `Cn1cnnc1C[C@]1(c2cccc(N3Cc4c(cc(CN5CCc6ncccc6C5)cc4C(F)(F)F)C3=O)c2)C[C@H](C#N)C1` [Compound 28, (1r,3r)-3-(3-(6-((7,8-dihydro-1,6-naphthyridin-6(5H)-yl)methyl)-1-oxo-4-(trifluoromethyl)isoindolin-2-yl)phenyl)-3-((4-methyl-4H-1,2,4-triazol-3-yl)methyl)cyclobutane-1-carbonitrile], the IC50 at Cbl-b (setting [3]) lay in the range of 2 to 5 nM. Moreover, the results for the fold induction at 0.3 µM in assay [1] (setting [5]) and in assay [2] (setting [5]) were no more than 15 and no more than 1.24, respectively. In addition, the fold induction at 1 µM in assay [1] (setting [6]) is no more than 15; in assay [1] (setting [7]) it was less than 0.4; in assay [2] (setting [8]), no more than 1.24; in assay [2] (setting [9]), no more than 1. Besides, the fold induction at 3 µM in assay [1] (anti-CD3 stimulation alone) was less than 0.4; in assay [2] (anti-CD3 stimulation alone) it was no more than 1.
In the case of `Cn1cnnc1C[C@]1(c2cccc(N3Cc4c(cc(CN5CCCOCC5)cc4C(F)(F)F)C3=O)c2)C[C@H](C#N)C1` [Compound 29, (1r,3r)-3-(3-(6-((1,4-oxazepan-4-yl)methyl)-1-oxo-4-(trifluoromethyl)isoindolin-2-yl)phenyl)-3-((4-methyl-4H-1,2,4-triazol-3-yl)methyl)cyclobutane-1-carbonitrile], the IC50 on Cbl-b (setting [3]) was in the range of 2 to 5 nM. The fold induction at 0.3 µM in assay [1] (setting [5]) was no more than 15; in assay [2] (setting [5]), 1.24 to 1.39. Besides, the fold induction at 1 µM was no more than 15 in assay [1] (setting [6]), less than 0.4 in assay [1] (setting [7]), 1.24 to 1.39 in assay [2] (setting [8]) and greater than 1.15 in assay [2] (setting [9]). Besides, the fold induction at 3 µM was 0.4 to 0.85 in assay [1] (anti-CD3 stimulation alone) and 1 to 1.15 in assay [2] (anti-CD3 stimulation alone).
For `Cn1cnnc1C[C@]1(c2cccc(N3Cc4c(cc(CN5CCOCC6(CC6)C5)cc4C(F)(F)F)C3=O)c2)C[C@H](C#N)C1` [Compound 30, (1r,3r)-3-(3-(6-((5-oxa-8-azaspiro[2.6]nonan-8-yl)methyl)-1-oxo-4-(trifluoromethyl)isoindolin-2-yl)phenyl)-3-((4-methyl-4H-1,2,4-triazol-3-yl)methyl)cyclobutane-1-carbonitrile], the IC50 on Cbl-b (setting [3]) was in the range of 2 to 5 nM. Further, the figures for the fold induction at 0.3 µM in assay [1] (setting [5]) and in assay [2] (setting [5]) were no more than 15 and no more than 1.24, respectively. The fold induction at 1 µM in assay [1] (setting [6]) was no more than 15; in assay [1] (setting [7]) it was less than 0.4; in assay [2] (setting [8]), no more than 1.24; in assay [2] (setting [9]) it was no more than 1. Further, the fold induction at 3 µM was less than 0.4 in assay [1] (anti-CD3 stimulation alone) and 1 to 1.15 in assay [2] (anti-CD3 stimulation alone).
Regarding `Cn1cnnc1C[C@]1(c2cccc(N3Cc4c(cc(CNC5CCC(C)(C)C5)cc4C(F)(F)F)C3=O)c2)C[C@H](C#N)C1` (stereo partly drawn) [Compound 31, (1r,3r)-3-(3-(6-(((3,3-dimethylcyclopentyl)amino)methyl)-1-oxo-4-(trifluoromethyl)isoindolin-2-yl)phenyl)-3-((4-methyl-4H-1,2,4-triazol-3-yl)methyl)cyclobutane-1-carbonitrile], the half-inhibitory concentration (IC50) at Cbl-b (setting [3]) and at Cbl-b (setting [4]) was less than 1 nM each time. For the same compound, the fold induction at 0.3 µM is greater than 20 in assay [1] (setting [5]) and greater than 1.39 in assay [2] (setting [5]). Besides, the fold induction at 1 µM in assay [1] (setting [6]) is greater than 20; in assay [1] (setting [7]), greater than 0.85; in assay [2] (setting [8]), greater than 1.39; in assay [2] (setting [9]) it was greater than 1.15. Besides, the fold induction at 3 µM in assay [1] (anti-CD3 stimulation alone) was greater than 0.85; in assay [2] (anti-CD3 stimulation alone) it was greater than 1.15.
Take `CN(Cc1cc2c(c(C(F)(F)F)c1)CN(c1cccc([C@]3(Cc4nncn4C)C[C@@H](C#N)C3)c1)C2=O)C1CCC(F)(F)C1` (stereo partly drawn) [Compound 32, (1r,3r)-3-(3-(6-(((3,3-difluorocyclopentyl)(methyl)amino)methyl)-1-oxo-4-(trifluoromethyl)isoindolin-2-yl)phenyl)-3-((4-methyl-4H-1,2,4-triazol-3-yl)methyl)cyclobutane-1-carbonitrile]: at Cbl-b (setting [3]), the IC50 is 2 to 5 nM. The fold induction at 0.3 µM in assay [1] (setting [5]) was greater than 20; in assay [2] (setting [5]), greater than 1.39. Besides, the fold induction at 1 µM in assay [1] (setting [6]) is greater than 20; in assay [1] (setting [7]), greater than 0.85; in assay [2] (setting [8]), greater than 1.39; in assay [2] (setting [9]) it was greater than 1.15. The results for the fold induction at 3 µM in assay [1] (anti-CD3 stimulation alone) and in assay [2] (anti-CD3 stimulation alone) were greater than 0.85 and greater than 1.15, respectively.
In the case of `CC1CN(Cc2cc3c(c(C(F)(F)F)c2)CN(c2cccc([C@]4(Cc5nncn5C)C[C@@H](C#N)C4)c2)C3=O)CCCO1` (stereo partly drawn) [Compound 33, (1r,3r)-3-(3-(6-((2-methyl-1,4-oxazepan-4-yl)methyl)-1-oxo-4-(trifluoromethyl)isoindolin-2-yl)phenyl)-3-((4-methyl-4H-1,2,4-triazol-3-yl)methyl)cyclobutane-1-carbonitrile], the half-inhibitory concentration (IC50) on Cbl-b (setting [3]) lay within 2 to 5 nM. Moreover, the fold induction at 0.3 µM in assay [1] (setting [5]) was no more than 15; in assay [2] (setting [5]), no more than 1.24. The fold induction at 1 µM in assay [1] (setting [6]) was no more than 15; in assay [1] (setting [7]), 0.4 to 0.85; in assay [2] (setting [8]) it was no more than 1.24; in assay [2] (setting [9]), no more than 1. Also, the fold induction at 3 µM in assay [1] (anti-CD3 stimulation alone) is 0.4 to 0.85; in assay [2] (anti-CD3 stimulation alone), no more than 1.
